How the values were obtained:
[1] = test system: melanoma B 16; assay: Test for melanoma B 16; type: in vivo, BDF1 hybrid mice; conditions: D1-D9; for Number of survivors: day D60; for T/C %: survival time
How it was run: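 BDF1 mice inoculated i.p. with 0.5 ml B16 melanoma homogenate (1 g tumour in 10 ml physiological serum); compound given i.p. daily D1–D9, Cis-platine positive control under same conditions. Surviving animals counted on D60; activity as survival increase vs untreated controls (T/C), toxicity if T/C ≤85%.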

[2] = in vivo; set-up: species or system CDF1 hybrid mice; conditions: mouse, ip
Excerpt: The compounds of the invention benefit from a good tolerance and a weak toxicity.
Thus the administration, to healthy CDF1 hybrid mice, in a single injection by intraperitoneal route, of the compounds under test, has enabled it to be established that the product is perfectly tolerated at a high dosage since the survival rate of the animals of the experiment was 100 out of 100 thirteen days after administration.

[3] = in vivo; set-up: species or system female CDF1 hybrid mice; conditions: mouse, iv
Experimental: In addition the administration, to healthy female CDF1 hybrid mice, in a single injection by intravenous route with a perfusor, lasting 4 minutes, of the compounds under test in solution in physiological serum at a rate of 0.1 ml of solution per 10 g weight of the animals has enabled it to be established that the compounds are also well tolerated at a high dosage in these conditions.

[4] = test system: leukemia P 388; assay: Test of leukemia P 388; IP/IP, D1-5; type: in vivo, CDF1 hybrid mice; conditions: D1-D5; for Number of survivors: day D30; for T/C %: survival time
How it was run: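 CDF1 hybrid mice received 10^6 P 388 cells intraperitoneally, then compound in distilled water by intraperitoneal route daily D1-D5, 10 mice per group, 5-fluorouracil as positive control. Activity judged as T/C survival time versus untreated controls, survivors counted at D30; T/C ≤85% or day 5 minus day 1 weight change ≤ −4 g counted as toxic.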

[5] = test system: leukemia P388; assay: Test for leukemia P388, IP/IP, D1; type: in vivo, CDF1 hybrid mice; conditions: for Number of survivors: day D30; for T/C %: survival time
How it was run: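 CDF1 hybrid mice inoculated i.p. on D0 with 10^6 P388 leukemia cells; compound in distilled water given i.p. once on D1, 10 mice per group. Activity as increase in survival time versus untreated controls (T/C); survivors counted on D30. 5-fluorouracil positive control under same conditions.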

With `Cc1cnc(NCCCN(C)C)c2c1[nH]c1ccc(O)cc12` [Derivative No. 10, 1-(3-dimethylaminopropylamino)-8-hydroxy-4-methyl-5H-pyrido[4,3-b]indole] the “Median day of survival” value ([1]; 1.25 mg/kg IP) was 32.0 days, the “Variation by weight (g)” value ([1]; 1.25 mg/kg IP) was “+2.8 g” and the Number of survivors ([1]; 1.25 mg/kg IP) was 0/10. For the same compound, the T/C % ([1]; 1.25 mg/kg IP) was 116%, the “Median day of survival” value ([1]; 2.5 mg/kg IP) was 38.75 days and the “Variation by weight (g)” value ([1]; 2.5 mg/kg IP) was “+1.8 g”. The Number of survivors ([1]; 2.5 mg/kg IP) was 0/10, the T/C % ([1]; 2.5 mg/kg IP) was 141% and the “Median day of survival” value ([1]; 5 mg/kg IP) was 44.0 days. For the same compound, the “Variation by weight (g)” value ([1]; 5 mg/kg IP) was “+2.4 g”, the Number of survivors ([1]; 5 mg/kg IP) was 0/10 and the T/C % ([1]; 5 mg/kg IP) was 160%. The “Median day of survival” value ([1]; 10 mg/kg IP) was 11.7 days, the “Variation by weight (g)” value ([1]; 10 mg/kg IP) was “+0.5 g” and the Number of survivors ([1]; 10 mg/kg IP) was 0/10. It also gave a T/C % ([1]; 10 mg/kg IP) of 42%, a survival at 312 h ([2]; 100 mg/kg) of 100% and a survival at 192 h ([3]; 25 mg/kg) of 100%. The survival at 192 h ([3]; 40 mg/kg) was 40%, the “Median day of survival” value ([4]; 0.625 mg/kg IP) was 15.75 days and the “Variation by weight (g)” value ([4]; 0.625 mg/kg IP) was “+4.1 g”. For the same compound, the Number of survivors ([4]; 0.625 mg/kg IP) was 0/10, the T/C % ([4]; 0.625 mg/kg IP) was 139% and the “Median day of survival” value ([4]; 1.25 mg/kg IP) was 17.0 days. The “Variation by weight (g)” value ([4]; 1.25 mg/kg IP) was “+3.3 g”, the Number of survivors ([4]; 1.25 mg/kg IP) was 0/10 and the T/C % ([4]; 1.25 mg/kg IP) was 150%. For the same compound, the “Median day of survival” value ([4]; 2.5 mg/kg IP) was 16.4 days, the “Variation by weight (g)” value ([4]; 2.5 mg/kg IP) was “+3.2 g” and the Number of survivors ([4]; 2.5 mg/kg IP) was 0/10. For the same compound, the T/C % ([4]; 2.5 mg/kg IP) was 145%, the “Median day of survival” value ([4]; 5 mg/kg IP) was 21.0 days and the “Variation by weight (g)” value ([4]; 5 mg/kg IP) was “+2.0 g”. For the same compound, the Number of survivors ([4]; 5 mg/kg IP) was 1/10, the T/C % ([4]; 5 mg/kg IP) was 186% and the “Median day of survival” value ([4]; 10 mg/kg IP) was 16.75 days. For the same compound, the “Variation by weight (g)” value ([4]; 10 mg/kg IP) was “+1.8 g”, the Number of survivors ([4]; 10 mg/kg IP) was 0/10 and the T/C % ([4]; 10 mg/kg IP) was 148%. For the same compound, the “Median day of survival” value ([4]; 20 mg/kg IP) was 7.8 days, the “Variation by weight” value ([4]; 20 mg/kg IP) was -0.4 g and the Number of survivors ([4]; 20 mg/kg IP) was 0/10. The T/C % ([4]; 20 mg/kg IP) was 69%, the “Median day of survival” value ([5]; 5 mg/kg IP) was 15.3 days and the “Variation by weight” value ([5]; 5 mg/kg IP) was -0.1 g. The Number of survivors ([5]; 5 mg/kg IP) was 0/10, the T/C % ([5]; 5 mg/kg IP) was 139% and the “Median day of survival” value ([5]; 10 mg/kg IP) was 15.25 days. The “Variation by weight (g)” value ([5]; 10 mg/kg IP) was “+0.3 g”, the Number of survivors ([5]; 10 mg/kg IP) was 0/10 and the T/C % ([5]; 10 mg/kg IP) was 139%. For the same compound, the “Median day of survival” value ([5]; 20 mg/kg IP) was 15.6 days, the “Variation by weight” value ([5]; 20 mg/kg IP) was -0.8 g and the Number of survivors ([5]; 20 mg/kg IP) was 0/10. The T/C % ([5]; 20 mg/kg IP) was 142%, the “Median day of survival” value ([5]; 40 mg/kg IP) was 15.3 days and the “Variation by weight” value ([5]; 40 mg/kg IP) was -1.4 g. For the same compound, the Number of survivors ([5]; 40 mg/kg IP) was 0/10 and the T/C % ([5]; 40 mg/kg IP) was 139%.

With `Cc1cnc(NCCCN(C)C)c2c3cc(O)ccc3n(C)c12` [Derivative No. 14, 4,5-dimethyl 1(3-dimethylaminopropylamino)-8-hydroxy-5H-pyrido[4,3-b]indole] the “Median day of survival” value ([1]; 1.25 mg/kg IP) was 29.75 days, the “Variation by weight (g)” value ([1]; 1.25 mg/kg IP) was “+1.0 g” and the Number of survivors ([1]; 1.25 mg/kg IP) was 0/10. For the same compound, the T/C % ([1]; 1.25 mg/kg IP) was 123%, the “Median day of survival” value ([1]; 2.5 mg/kg IP) was 32.6 days and the “Variation by weight (g)” value ([1]; 2.5 mg/kg IP) was “+0.1 g”. The Number of survivors ([1]; 2.5 mg/kg IP) was 0/10, the T/C % ([1]; 2.5 mg/kg IP) was 134% and the “Median day of survival” value ([1]; 5 mg/kg IP) was 50.0 days. The “Variation by weight” value ([1]; 5 mg/kg IP) was -0.2 g, the Number of survivors ([1]; 5 mg/kg IP) was 1/10 and the T/C % ([1]; 5 mg/kg IP) was 206%. For the same compound, the “Median day of survival” value ([1]; 10 mg/kg IP) was 11.75 days, the “Variation by weight” value ([1]; 10 mg/kg IP) was -1.9 g and the Number of survivors ([1]; 10 mg/kg IP) was 0/10. It also gave a T/C % ([1]; 10 mg/kg IP) of 48%, a survival at 312 h ([2]; 25 mg/kg) of 100% and a survival at 192 h ([3]; 50 mg/kg) of 100%. The “Median day of survival” value ([4]; 2.5 mg/kg IP) was 19.25 days, the “Variation by weight (g)” value ([4]; 2.5 mg/kg IP) was “+0.9 g” and the Number of survivors ([4]; 2.5 mg/kg IP) was 1/10. For the same compound, the T/C % ([4]; 2.5 mg/kg IP) was 166%, the “Median day of survival” value ([4]; 5 mg/kg IP) was 22 days and the “Variation by weight” value ([4]; 5 mg/kg IP) was -1.0 g. The Number of survivors ([4]; 5 mg/kg IP) was 3/10, the T/C % ([4]; 5 mg/kg IP) was 190% and the “Median day of survival” value ([4]; 10 mg/kg IP) was 11.75 days. For the same compound, the “Variation by weight” value ([4]; 10 mg/kg IP) was -1.7 g, the Number of survivors ([4]; 10 mg/kg IP) was 0/10 and the T/C % ([4]; 10 mg/kg IP) was 102%. The “Median day of survival” value ([4]; 20 mg/kg IP) was 7.4 days, the “Variation by weight” value ([4]; 20 mg/kg IP) was -4.4 g and the Number of survivors ([4]; 20 mg/kg IP) was 0/10. For the same compound, the T/C % ([4]; 20 mg/kg IP) was 64%, the “Median day of survival” value ([5]; 5 mg/kg IP) was 19.75 days and the “Variation by weight” value ([5]; 5 mg/kg IP) was -1.2 g. The Number of survivors ([5]; 5 mg/kg IP) was 0/10, the T/C % ([5]; 5 mg/kg IP) was 173% and the “Median day of survival” value ([5]; 10 mg/kg IP) was 19.0 days. The “Variation by weight” value ([5]; 10 mg/kg IP) was -1.4 g, the Number of survivors ([5]; 10 mg/kg IP) was 1/10 and the T/C % ([5]; 10 mg/kg IP) was 167%. The “Median day of survival” value ([5]; 20 mg/kg IP) was 18.75 days, the “Variation by weight” value ([5]; 20 mg/kg IP) was -2.5 g and the Number of survivors ([5]; 20 mg/kg IP) was 1/10. The T/C % ([5]; 20 mg/kg IP) was 164%.
